Reference: US9809598B2 (Merck Patent GmbH, priority 2014, dated 2017)
Where a name gives a salt, the structure may show the parent alone.

Experiments:
TNKS2 = target: T1, TNKS2 (Homo sapiens, UniProt Q9H2K2); experiment: TNKS2 activity ELISA (autoparsylation assay); format: biochemical; conditions: GST-tagged Tnks-2 (873-1166 aa); read-out: IC50 [M] TNKS2 ELISA
T1 construct: GST-tagged Tnks-2 (873-1166 aa, prepared in-house); made in house
Description: (§1) Description of the TNKS1 and TNKS2 ELISA Assay
(§2) Biochemical Activity Testing of TNKS 1 and 2: Activity ELISA (Autoparsylation Assay)
(§3) For analysis of autoparsylation activity of TNKS 1 and 2 an activity ELISA iss performed: In the first step GST tagged TNKS is captured on a Glutathione coated plate. Then the activity assay with biotinylated NAD is performed in the absence/presence of the compounds. During the enzymatic reaction GST tagged TNKS transfers biotinylated ADP-ribose to itself from biotinylated NAD as co-substrate. For the detection streptavidin-HRP conjugate is added that binds to the biotinylated TNKS and is thereby captured to the plates. The amount of biotinylated resp. autoparsylated TNKS is detected with a luminescence substrate for HRP. The level of the luminescence signal correlats directly with the amount of autoparsylated TNKS and therefore with activity of TNKS.
(§4) The activity ELISA is performed in 384 well Glutathione coated microtiter plates (Express capture Glutathione coated plate, Biocat, Heidelberg, Germany). The plates are pre-equilibrated with PBS. […] The plates are washed 3 times with PBS-Tween-20. The wells are blocked by incubation at room temperature for 20 minutes with 50 μl blocking buffer (PBS, 0.05% Tween-20, 0.5% BSA). Afterwards the plates are washed 3 times with PBS-Tween-20. […] The reaction is stopped by 3 times washing with PBS-Tween-20. For the detection 50 μl of 20 ng/μl Streptavidin, HRP conjugate (MoBiTec, Göttingen, Germany) in PBS/0.05% Tween-20/0.01% BSA are added and the plates are incubated for 30 minutes at room temperature. After three times washing with PBS-Tween-20 50 μl of SuperSignal ELISA Femto Maximum sensitivity substrate solution (ThermoFisherScientific (Pierce), Bonn, Germany) are added. Following a 1 minute incubation at room temperature luminescence signals are measured with an Envision multimode reader (Perkin Elmer LAS Germany GmbH) at 700 nm. The full value used is the inhibitor-free reaction. […] The inhibitory values (IC50) are determined using either the program Symyx Assay Explorer® or Condosseo® from GeneData.

Tankyrases = conditions: read-out: EC50 [M] TNKS cellular assay; DLD1 cells, 24 hours, Axin2 increase
Description: Measurement of Cellular Inhibition of Tankyrase
Cells of the colon carcinoma cell line DLD1 are plated in 96 well plates with 1.5×10^4 cells per well. Next day, cells are treated with a serial dilution of test compound in seven steps as triplicates with a final DMSO concentration of 0.3%. […] The amount of isolated Axin2 protein is determined in a Luminex^200 machine (Luminex Corporation) according to the manufacturer's instruction by counting 100 events per well. […] As controls cells are treated with solvent alone (neutral control) and with a Tankyrase reference inhibitor IWR-2 (3E−06 M) which refers as control for maximum increase of Axin2. For analysis, the obtained data are normalized against the untreated solvent control and fitted for determination of the EC50 values using the Assay Explorer software (Accelrys).

TNKS1 = target: T2, TNKS1 (Homo sapiens, UniProt O95271); experiment: TNKS1 activity ELISA (autoparsylation assay); format: biochemical; conditions: GST-tagged Tnks-1 (1023-1327 aa)
T2 construct: GST-tagged Tnks-1 (1023-1327 aa, prepared in-house); made in house
T2 sequence (O95271 1023-1327): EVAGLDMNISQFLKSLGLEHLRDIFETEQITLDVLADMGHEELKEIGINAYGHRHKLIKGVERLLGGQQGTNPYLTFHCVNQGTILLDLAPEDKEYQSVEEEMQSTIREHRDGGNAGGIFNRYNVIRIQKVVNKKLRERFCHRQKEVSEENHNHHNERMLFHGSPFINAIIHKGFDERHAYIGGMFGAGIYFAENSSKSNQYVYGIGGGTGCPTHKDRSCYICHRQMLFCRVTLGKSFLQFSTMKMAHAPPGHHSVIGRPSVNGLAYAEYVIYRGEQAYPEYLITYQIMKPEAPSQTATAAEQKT
Description: as §1, §2, §3, §4

T1 sequence (Q9H2K2 873-1166): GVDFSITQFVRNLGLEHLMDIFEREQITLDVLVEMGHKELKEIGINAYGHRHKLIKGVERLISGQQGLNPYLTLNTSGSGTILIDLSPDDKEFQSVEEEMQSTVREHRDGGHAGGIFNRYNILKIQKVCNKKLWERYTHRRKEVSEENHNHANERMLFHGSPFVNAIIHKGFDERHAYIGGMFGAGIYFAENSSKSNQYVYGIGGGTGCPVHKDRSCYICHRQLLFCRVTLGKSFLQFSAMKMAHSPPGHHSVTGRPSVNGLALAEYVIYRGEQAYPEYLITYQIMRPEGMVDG

Which results are given for COc1ccc(C(=O)C2CCN(C(=O)CCCc3cn4cccc4c(=O)[nH]3)CC2)cc1 [Compound C2, 3-{4-[4-(4-Methoxy-benzoyl)-piperidin-1-yl]-4-oxo-butyl}-2H-pyrrolo[1,2-a]-pyrazin-1-one]?
IC50 (TNKS2): 1.4e-10 M; EC50 (Tankyrases): 5e-10 M; IC50 (TNKS1): 0.24 nM

What does the source list for COc1ccc(C(=O)C2CCN(C(=O)CCCc3cn4cccc4c(=O)[nH]3)CC2)cc1C [Compound C4, 3-{4-[4-(4-Methoxy-3-methyl-benzoyl)-piperidin-1-yl]-4-oxo-butyl}-2H-pyrrolo[1,2-a]pyrazin-1-one]?
IC50 (TNKS2): 1.5e-10 M; EC50 (Tankyrases): 3.4e-10 M; IC50 (TNKS1): 0.14 nM

Which IC50 (TNKS2) does the source give for COc1ccc(C(=O)C2CCN(C(=O)CCCc3cn4c(F)ccc4c(=O)[nH]3)CC2)cc1 [Compound C9, 6-Fluoro-3-{4-[4-(4-methoxy-benzoyl)-piperidin-1-yl]-4-oxo-butyl}-2H-pyrrolo[1,2-a]pyrazin-1-one] here?
The IC50 was 1.3e-10 M.

What about the EC50 (Tankyrases) of the same compound?
The EC50 was 7.2e-10 M.

What about the IC50 (TNKS1) of the same compound?
The IC50 was 0.2 nM.

Which results are given for COc1ccc(C(=O)C2CCN(C(=O)CCCc3cn4cncc4c(=O)[nH]3)CC2)cc1 [Compound C10, 6-{4-[4-(4-Methoxy-benzoyl)-piperidin-1-yl]-4-oxo-butyl}-7H-imidazo[1,5-a]-pyrazin-8-one]?
IC50 (TNKS2): 1.3e-10 M; EC50 (Tankyrases): 6.7e-09 M; IC50 (TNKS1): 0.32 nM

How did the IC50 (TNKS2) turn out when COc1ccc(C(=O)C2CCN(C(=O)CCCc3cn4nc(C)cc4c(=O)[nH]3)CC2)cc1 [Compound C12, 6-{4-[4-(4-Methoxy-benzoyl)-piperidin-1-yl]-4-oxo-butyl}-2-methyl-5H-pyrazolo[1,5-a]pyrazin-4-one] was run?
Its IC50 is 1.4e-10 M.

What about the EC50 (Tankyrases) of the same compound?
Its EC50 is 4.9e-10 M.

And the IC50 (TNKS1)?
Its IC50 is 0.13 nM.

What does the source list for COc1ccc(C(=O)C2CCN(C(=O)CCCc3cn4ccnc4c(=O)[nH]3)CC2)cc1 [Compound C13, 6-{4-[4-(4-Methoxy-benzoyl)-piperidin-1-yl]-4-oxo-butyl}-7H-imidazo[1,2-a]-pyrazin-8-one]?
IC50 (TNKS2): 7.4e-10 M; EC50 (Tankyrases): 4.1e-07 M; IC50 (TNKS1): 1.2 nM

How did the IC50 (TNKS1) turn out when COc1ccc(C(=O)C2CCN(C(=O)CCCc3nc4c(C)scc4c(=O)[nH]3)CC2)cn1 [Compound C114] was run?
The IC50 was 0.68 nM.

How did the IC50 (TNKS2) turn out when Cn1cc(C(=O)C2CCN(C(=O)CCCc3nn4cccc4c(=O)[nH]3)CC2)cn1 [Compound C146, 2-{4-[4-(1-Methyl-1H-pyrazole-4-carbonyl)-piperidin-1-yl]-4-oxo-butyl}-3H-pyrrolo[2,1-f][1,2,4]triazin-4-one] was run?
The IC50 was 1.4e-09 M.

What about the EC50 (Tankyrases) of the same compound?
The EC50 was 8.7e-08 M.

What about the IC50 (TNKS1) of the same compound?
The IC50 was 2.2 nM.

Which results are given for CC(C)(O)c1ccc(C(=O)C2CCN(C(=O)CCCc3nc4c(c(=O)[nH]3)COCC4)CC2)cc1 [Compound C200, 2-(4-{4-[4-(1-Hydroxy-1-methyl-ethyl)-benzoyl]-piperidin-1-yl}-4-oxo-butyl)-3,5,7,8-tetrahydro-pyrano[4,3-d]pyrimidin-4-one]?
IC50 (TNKS2): 2.2e-08 M; EC50 (Tankyrases): 3.7e-06 M; IC50 (TNKS1): 170 nM

Which IC50 (TNKS2) does the source give for Cn1cc(C(=O)C2CCN(C(=O)CCCc3cn4cncc4c(=O)[nH]3)CC2)cn1 [Compound C207, 6-{4-[4-(1-Methylpyrazole-4-carbonyl)-1-piperidyl]-4-oxo-butyl}-7H-imidazo[1,5-a]pyrazin-8-one] here?
The IC50 was 2.8e-09 M.

And the EC50 (Tankyrases)?
The EC50 was 1.1e-06 M.

What about the IC50 (TNKS1) of the same compound?
Its IC50 is 7.1 nM.

CC(C)n1cc(C(=O)C2CCN(C(=O)CCCc3nc4c(cnn4C)c(=O)[nH]3)CC2)cn1 [Compound C218, 6-{4-[4-(1-Isopropyl-1H-pyrazole-4-carbonyl)-piperidin-1-yl]-4-oxo-butyl}-1-methyl-1,5-dihydro-pyrazolo[3,4-d]pyrimidin-4-one] was tested. Which IC50 (TNKS2) did it give?
Its IC50 is 8.5e-10 M.

And the EC50 (Tankyrases)?
Its EC50 is 1.4e-07 M.

And the IC50 (TNKS1)?
The IC50 was 2 nM.

CCn1cc(C(=O)C2CCN(C(=O)CCCc3nc4c(c(=O)[nH]3)COCC4)CC2)cn1 [Compound C228, 2-{4-[4-(1-Ethyl-1H-pyrazole-4-carbonyl)-piperidin-1-yl]-4-oxo-butyl}-3,5,7,8-tetrahydro-pyrano[4,3-d]pyrimidin-4-one] was tested. Which IC50 (TNKS2) did it give?
The IC50 was 2.2e-09 M.

What about the EC50 (Tankyrases) of the same compound?
The EC50 was 2.9e-06 M.

And the IC50 (TNKS1)?
Its IC50 is 14 nM.

Which IC50 (TNKS2) does the source give for COc1ccc(C(=O)C2CCN(C(=O)CCCc3nc(C)c(C)c(=O)[nH]3)CC2)cn1 [Compound C241, 2-{4-[4-(6-Methoxy-pyridine-3-carbonyl)-piperidin-1-yl]-4-oxo-butyl}-5,6-dimethyl-3H-pyrimidin-4-one] here?
Its IC50 is 4.9e-09 M.

And the EC50 (Tankyrases)?
The EC50 was 3.5e-08 M.

And the IC50 (TNKS1)?
Its IC50 is 11 nM.

For Cc1nc(CCCC(=O)N2CCC(C(=O)c3cnn(C)c3)CC2)[nH]c(=O)c1C [Compound C242, 5,6-Dimethyl-2-{4-[4-(1-methyl-1H-pyrazole-4-carbonyl)-piperidin-1-yl]-4-oxo-butyl}-3H-pyrimidin-4-one], which IC50 (TNKS2) is on record?
Its IC50 is 7.1e-09 M.

What about the EC50 (Tankyrases) of the same compound?
Its EC50 is 8.8e-07 M.

And the IC50 (TNKS1)?
The IC50 was 24 nM.

Which IC50 (TNKS2) does the source give for COc1ccc(C(=O)C2CCN(C(=O)CCCc3nncc4ccccc34)CC2)cc1 [Compound C250, 1-[4-(4-Methoxy-benzoyl)-piperidin-1-yl]-4-phthalazin-1-yl-butan-1-one] here?
Its IC50 is 1.1e-09 M.

What about the EC50 (Tankyrases) of the same compound?
Its EC50 is 4.6e-08 M.

And the IC50 (TNKS1)?
The IC50 was 2.8 nM.

Which results are given for CCc1cc(=O)[nH]c(CCCC(=O)N2CCC(C(=O)c3ccc(OC)cc3)CC2)n1 [Compound C251, 6-Ethyl-2-{4-[4-(4-methoxy-benzoyl)-piperidin-1-yl]-4-oxo-butyl}-3H-pyrimidin-4-one]?
IC50 (TNKS2): 2.9e-09 M; EC50 (Tankyrases): 7e-08 M; IC50 (TNKS1): 7.8 nM

Which results are given for CCc1cc(=O)[nH]c(CCCC(=O)N2CCC(C(=O)c3ccc(F)cc3)CC2)n1 [Compound C252, 6-Ethyl-2-{4-[4-(4-fluoro-benzoyl)-piperidin-1-yl]-4-oxo-butyl}-3H-pyrimidin-4-one]?
IC50 (TNKS2): 1.7e-08 M; IC50 (TNKS1): 35 nM

Which IC50 (TNKS2) does the source give for CCc1cc(=O)[nH]c(CCCC(=O)N2CCC(C(=O)c3ccc(OC)nc3)CC2)n1 [Compound C253, 6-Ethyl-2-{4-[4-(6-methoxy-pyridine-3-carbonyl)-piperidin-1-yl]-4-oxo-butyl}-3H-pyrimidin-4-one] here?
The IC50 was 1.9e-08 M.

What about the EC50 (Tankyrases) of the same compound?
Its EC50 is 7e-07 M.

What about the IC50 (TNKS1) of the same compound?
The IC50 was 31 nM.

For COc1ccc(C(=O)C2CCN(C(=O)CCCc3nc(C(C)C)cc(=O)[nH]3)CC2)cc1 [Compound C254, 6-Isopropyl-2-{4-[4-(4-methoxy-benzoyl)-piperidin-1-yl]-4-oxo-butyl}-3H-pyrimidin-4-one trifluoroacetate], which IC50 (TNKS2) is on record?
Its IC50 is 1.5e-08 M.

What about the EC50 (Tankyrases) of the same compound?
Its EC50 is 2.6e-07 M.

And the IC50 (TNKS1)?
Its IC50 is 28 nM.

With CC(C)c1cc(=O)[nH]c(CCCC(=O)N2CCC(C(=O)c3ccc(F)cc3)CC2)n1 [Compound C255, 2-{4-[4-(4-Fluorobenzoyl)-1-piperidyl]-4-oxo-butyl}-4-isopropyl-1H-pyrimidin-6-one trifluoroacetate] as the compound, how does the IC50 (TNKS2) read?
Its IC50 is 4.9e-08 M.

What about the EC50 (Tankyrases) of the same compound?
The EC50 was 2.7e-06 M.

And the IC50 (TNKS1)?
Its IC50 is 110 nM.

With COc1ccc(C(=O)C2CCN(C(=O)CCCc3nc(C(C)C)cc(=O)[nH]3)CC2)cn1 [Compound C256, 4-Isopropyl-2-{4-[4-(6-methoxypyridine-3-carbonyl)-1-piperidyl]-4-oxo-butyl}-1H-pyrimidin-6-one trifluoroacetate] as the compound, how does the IC50 (TNKS2) read?
The IC50 was 6.5e-08 M.

And the EC50 (Tankyrases)?
Its EC50 is 2.6e-06 M.

What about the IC50 (TNKS1) of the same compound?
Its IC50 is 160 nM.

What does the source list for CC(C)c1cc(=O)[nH]c(CCCC(=O)N2CCC(C(=O)c3cnn(C)c3)CC2)n1 [Compound C257, 4-Isopropyl-2-{4-[4-(1-methylpyrazole-4-carbonyl)-1-piperidyl]-4-oxo-butyl}-1H-pyrimidin-6-one trifluoroacetate]?
IC50 (TNKS2): 5.8e-08 M; EC50 (Tankyrases): 9.3e-06 M; IC50 (TNKS1): 110 nM

With COc1ccc(C(=O)C2CCN(C(=O)CCCc3noc4ccccc34)CC2)cc1 [Compound C258, 4-(1,2-Benzoxazol-3-yl)-1-[4-(4-methoxybenzoyl)-1-piperidyl]butan-1-one] as the compound, how does the IC50 (TNKS2) read?
The IC50 was 9.5e-08 M.

What about the IC50 (TNKS1) of the same compound?
Its IC50 is 150 nM.

What does the source list for O=C(c1ccc(F)cc1)C1CCN(C(=O)CCCc2noc3ccccc23)CC1 [Compound C259, 4-(1,2-Benzoxazol-3-yl)-1-[4-(4-fluorobenzoyl)-1-piperidyl]butan-1-one]?
IC50 (TNKS2): 4.6e-07 M; IC50 (TNKS1): 730 nM

What does the source list for O=C(c1ccc(F)c(F)c1)C1CCN(C(=O)CCCc2nc3c(c(=O)[nH]2)COCC3)CC1 [Compound C262, 2-{4-[4-(3,4-Difluorobenzoyl)-1-piperidyl]-4-oxo-butyl}-3,5,7,8-tetrahydro-pyrano[4,3-d]pyrimidin-4-one]?
IC50 (TNKS2): 1.2e-09 M; IC50 (TNKS1): 7.1 nM

Which IC50 (TNKS2) does the source give for CC(F)(F)c1ccc(C(=O)C2CCN(C(=O)CCCc3nc4c(c(=O)[nH]3)COCC4)CC2)cc1 [Compound C263, 2-{4-{4-[4-(1,1-Difluoroethyl)benzoyl]-1-piperidyl}-4-oxo-butyl}-3,5,7,8-tetra-hydropyrano[4,3-d]pyrimidin-4-one] here?
The IC50 was 3.3e-10 M.

What about the IC50 (TNKS1) of the same compound?
Its IC50 is 5.1 nM.
